Here are results for five compounds from PubChem BioAssay AID1919014 (Molecular Pharmacology Branch, DTP, NCI, 2023).

Several values for one entry are separate records, joined by “and”; a condition that tells them apart may be missing. Identical values can stand only once. A value given as a limit tells only on which side of the number the result lay.

For this test, the system named is NCI-H1341 complex spheroids, percent test/control. Description: Anticancer human tumor NCI-H1341 cell line growth inhibition [AhR].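 For all read-outs here: spheroids exposed to agents for seven days before readout.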 The note with it: for viability, T/C: stronger effect = lower value. The gist of the method:
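Agents were dosed in half-log steps down from roughly clinical Cmax, or from 10 microM where Cmax was unknown, alone and with AhR antagonists. Read-out: percent test/control growth of tumor spheroids containing HUVEC and MSC stromal cells.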

The mark [1] stands for this setting: curve of first compound, second compound 0.1 µM.
Where [2] appears, read: curve of first compound, second compound 0.316 µM.
[3] abbreviates: curve of first compound, second compound 1 µM.
The mark [4] stands for this setting: curve of first compound, second compound 3.16 µM.
Where [5] appears, read: curve of first compound, second compound 10 µM.
[6] abbreviates: second compound 0.1 µM, first compound 0.0316 µM.
Setting [7] is: second compound 0.1 µM, first compound 0.1 µM.
Setting [8] is: second compound 0.1 µM, first compound 0.316 µM.
Setting [9] is: second compound 0.1 µM, first compound 1 µM.
The mark [10] stands for this setting: second compound 0.1 µM, first compound 3.16 µM.
[11] abbreviates: second compound 0.1 µM, first compound 10 µM.
Where [12] appears, read: second compound 0.316 µM, first compound 0.0316 µM.
[13] abbreviates: second compound 0.316 µM, first compound 0.1 µM.
The mark [14] stands for this setting: second compound 0.316 µM, first compound 0.316 µM.
[15] abbreviates: second compound 0.316 µM, first compound 1 µM.
Setting [16] is: second compound 0.316 µM, first compound 3.16 µM.
Setting [17] is: second compound 0.316 µM, first compound 10 µM.
The mark [18] stands for this setting: second compound 1 µM, first compound 0.0316 µM.
Where [19] appears, read: second compound 1 µM, first compound 0.1 µM.
[20] abbreviates: second compound 1 µM, first compound 0.316 µM.
Where [21] appears, read: second compound 1 µM, first compound 1 µM.
Setting [22] is: second compound 1 µM, first compound 3.16 µM.
The mark [23] stands for this setting: second compound 1 µM, first compound 10 µM.
[24] abbreviates: second compound 3.16 µM, first compound 0.0316 µM.
The mark [25] stands for this setting: second compound 3.16 µM, first compound 0.1 µM.
Where [26] appears, read: second compound 3.16 µM, first compound 0.316 µM.
The mark [27] stands for this setting: second compound 3.16 µM, first compound 1 µM.
Where [28] appears, read: second compound 3.16 µM, first compound 3.16 µM.
Setting [29] is: second compound 3.16 µM, first compound 10 µM.
The mark [30] stands for this setting: second compound 10 µM, first compound 0.0316 µM.
Setting [31] is: second compound 10 µM, first compound 0.1 µM.
The mark [32] stands for this setting: second compound 10 µM, first compound 0.316 µM.
Where [33] appears, read: second compound 10 µM, first compound 1 µM.
[34] abbreviates: second compound 10 µM, first compound 3.16 µM.
Setting [35] is: second compound 10 µM, first compound 10 µM.

The IC50 is the concentration at which inhibition is half-maximal. By viability, T/C is commonly meant the result in the treated group divided by that in the control group, in per cent. With `NS(=O)(=O)OCC1CC(n2ccc3c(NC4CCc5ccccc54)ncnc32)CC1O` (centres undefined) + CC(CO)NC(=O)c1cc(-c2ccc(Cl)cc2)nn(-c2cnn(C)c2)c1=O, the IC50 under setting [1] is under 31.6 nM; the IC50 under setting [2] is under 31.6 nM; the IC50 under setting [3] was under 31.6 nM; the concentration for half-maximal inhibition (IC50) under setting [4] is under 31.6 nM; the IC50 under setting [5] is under 31.6 nM. In addition, the viability, T/C by setting is: under setting [6], 33%; under setting [7], 28%; under setting [8], 11%; under setting [9], 5.48%; under setting [10], 5.17%; under setting [11], 3.34%. The viability, T/C is, setting by setting: under setting [12], 37.6%; under setting [13], 28.2%; under setting [14], 13.5%; under setting [15], 6.9%; under setting [16], 3.38%; under setting [17], 3.76%. Besides, the viability, T/C was 39.7% under setting [18]; 31.2% under setting [19]; 13.1% under setting [20]; 6.82% under setting [21]; 4.46% under setting [22]; 3.84% under setting [23]. Also, the viability, T/C under setting [24] is 32.1%; the viability, T/C under setting [25] is 27.6%; the viability, T/C under setting [26] was 14.8%; the viability, T/C under setting [27] is 7.34%; the viability, T/C under setting [28] was 5.49%; the viability, T/C under setting [29] is 4.2%. The viability, T/C by setting is: under setting [30], 29.1%; under setting [31], 23.1%; under setting [32], 13.8%; under setting [33], 7.32%; under setting [34], 5.1%; under setting [35], 2.95%.
As to `COc1cc(C2c3cc4c(cc3C(OC3OC5COC(C)OC5C(O)C3O)C3COC(=O)C23)OCO4)cc(OC)c1O` (centres undefined) + Cc1cncc(-c2nc(NCCc3c[nH]c4ccccc34)c3ncn(C(C)C)c3n2)c1, the IC50 is 416 nM under setting [1]; 611 nM under setting [2]; 283 nM under setting [3]; 233 nM under setting [4]; under 31.6 nM under setting [5]. In addition, the viability, T/C by setting is: under setting [6], 74.3%; under setting [7], 89.4%; under setting [8], 54.7%; under setting [9], 36.6%; under setting [10], 34.1%; under setting [11], 34%. Also, the viability, T/C runs as follows: under setting [12], 79.5%; under setting [13], 76.3%; under setting [14], 62.2%; under setting [15], 40.9%; under setting [16], 35.1%; under setting [17], 34.2%. The viability, T/C is, setting by setting: under setting [18], 74.9%; under setting [19], 72.9%; under setting [20], 47.6%; under setting [21], 36%; under setting [22], 40.5%; under setting [23], 34.2%. Moreover, the viability, T/C runs as follows: under setting [24], 76.1%; under setting [25], 61.4%; under setting [26], 41.7%; under setting [27], 44%; under setting [28], 35.7%; under setting [29], 32.7%. Moreover, the viability, T/C runs as follows: under setting [30], 30.6%; under setting [31], 27.4%; under setting [32], 23.1%; under setting [33], 23.5%; under setting [34], 14%; under setting [35], 14.1%.
Take `CC1COCCN1c1cc(-c2ccnn2C)c2ccnc(-c3ccn[nH]3)c2n1` (centres undefined) + CC(CO)NC(=O)c1cc(-c2ccc(Cl)cc2)nn(-c2cnn(C)c2)c1=O: the IC50 reads like this: under setting [1], 45.8 nM; under setting [2], 34.3 nM; under setting [3], 24.8 nM; under setting [4], 25.3 nM; under setting [5], 16.8 nM. For the same compound, the viability, T/C runs as follows: (second compound 0.1 µM, first compound 0.00316 µM) 87.6%; (second compound 0.1 µM, first compound 0.01 µM) 77.6%; under setting [6], 61.2%; under setting [7], 28.6%; under setting [8], 20.5%; under setting [9], 20.2%. Also, the viability, T/C is 96.4% (second compound 0.316 µM, first compound 0.00316 µM); 73.6% (second compound 0.316 µM, first compound 0.01 µM); 54.5% under setting [12]; 29.7% under setting [13]; 23.8% under setting [14]; 18.2% under setting [15]. Moreover, the viability, T/C runs as follows: (second compound 1 µM, first compound 0.00316 µM) 90.2%; (second compound 1 µM, first compound 0.01 µM) 72.3%; under setting [18], 44.6%; under setting [19], 25.3%; under setting [20], 22.7%; under setting [21], 19.2%. For the same compound, the viability, T/C by setting is: (second compound 3.16 µM, first compound 0.00316 µM) 84.3%; (second compound 3.16 µM, first compound 0.01 µM) 77.3%; under setting [24], 43.1%; under setting [25], 24.6%; under setting [26], 23.7%; under setting [27], 17.8%. In addition, the viability, T/C by setting is: (second compound 10 µM, first compound 0.00316 µM) 71.2%; (second compound 10 µM, first compound 0.01 µM) 64%; under setting [30], 33%; under setting [31], 21.6%; under setting [32], 22.2%; under setting [33], 17.8%.
Consider `Nc1ccccc1NC(=O)c1ccc(CNC(=O)OCc2cccnc2)cc1`, for which the viability, T/C (compound 0.0316 µM) is 86.1% and 87.6% and 78.7%; the viability, T/C (compound 0.1 µM) is 92.3% and 84.5% and 75%; the viability, T/C (compound 0.316 µM) is 59.9% and 74.8% and 27.3%; the viability, T/C (compound 1 µM) was 24.3% and 40.5% and 16.6%; the viability, T/C (compound 3.16 µM) is 5.76% and 6.13% and 5.26%; the viability, T/C (compound 10 µM) was 0.69% and 0.9% and 0.3%. The IC50 (curve of compound) was 457 nM and 718 nM and 183 nM.
`CC(CO)NC(=O)c1cc(-c2ccc(Cl)cc2)nn(-c2cnn(C)c2)c1=O` (centres undefined): where the note is “compound 10 µM”, the viability, T/C is 78.7% [middle of 19 runs]. For the same compound, where the note is “compound alone, run of 07/12/2022”, the IC50 was over 10000 nM.
